According to patent US9238644B2, “VEGFR3 inhibitors” (CANCER THERAPEUTICS CRC PTY LIMITED, priority 2012, dated 2016):

What was measured:
VEGFR3 = VEGFR3 (Homo sapiens (Human), UniProt P35916); test: VEGFR3 Phospho ELISA assay; type: cell-based; conditions: HMVEC-dLyAD cells, treated 1 hour, VEGFC stimulated; phospho VEGFR3 relative to Total VEGFR3
Protocol: Adult human dermal lymphatic microvascular endothelial cells (HMVEC-dLyAD) (Cat# CC-2810, Lonza) were seeded into clear-bottom, TC treated 12 well plates (Cat #665180, Greiner Bio-One) in EGM-2MV (Cat# CC-3202, Lonza) at 180,000 cells/well (volume 1 mL), and the plates incubated at 37° C. and 5% CO2 for 6 hours.
96 well Maxisorp immuno plates (Cat #439454, Nunc) were coated with 100 μL of Total VEGFR3 capture antibody (Part #841888, Human Total VEGFR3/FLT4 ELISA Kit, Cat # DYC3491, R&D Systems), or Phospho VEGFR3 Capture antibody (Part #841885, Human Phospho VEGFR3/FLT4 ELISA Kit, Cat# DYC2724, R&D Systems). The plates were covered and incubated at room temperature overnight.
The coating antibody was flicked out and the plates washed three times with Wash Buffer (Phosphate buffered saline (137 mM NaCl, 2.7 nM KCl, 8.1 nM Na2HPO4, 1.5 mL KH2PO4, pH 7.2-7.4), 0.05% Tween 20). 300 μL of blocking buffer (5% v/v Tween 20, 5% w/v sucrose in PBS) was then added to wells and plate incubated for 2 hours at room temperature. Blocking solution is flicked out and plates washed three times and tapped dry.
Compound dilution series were prepared in EBM-2 (Cat # CC-3156, Lonza)+0.1% BSA (Cat# A8412, Sigma) with constant 0.1% DMSO concentration. […]
Total VEGFR3 levels were quantified using a Multiskan Ascent plate reader and Ascent software fitted with 450 nm filter. […]

VEGFR2 = VEGFR2 (Homo sapiens (Human), UniProt P35968); test: VEGFR2 Phospho ELISA assay; conditions: HUVEC, treated 1 hour, VEGF stimulated; phospho VEGFR2 relative to Total VEGFR2
Chain of VEGFR2 (P35968 20-1356): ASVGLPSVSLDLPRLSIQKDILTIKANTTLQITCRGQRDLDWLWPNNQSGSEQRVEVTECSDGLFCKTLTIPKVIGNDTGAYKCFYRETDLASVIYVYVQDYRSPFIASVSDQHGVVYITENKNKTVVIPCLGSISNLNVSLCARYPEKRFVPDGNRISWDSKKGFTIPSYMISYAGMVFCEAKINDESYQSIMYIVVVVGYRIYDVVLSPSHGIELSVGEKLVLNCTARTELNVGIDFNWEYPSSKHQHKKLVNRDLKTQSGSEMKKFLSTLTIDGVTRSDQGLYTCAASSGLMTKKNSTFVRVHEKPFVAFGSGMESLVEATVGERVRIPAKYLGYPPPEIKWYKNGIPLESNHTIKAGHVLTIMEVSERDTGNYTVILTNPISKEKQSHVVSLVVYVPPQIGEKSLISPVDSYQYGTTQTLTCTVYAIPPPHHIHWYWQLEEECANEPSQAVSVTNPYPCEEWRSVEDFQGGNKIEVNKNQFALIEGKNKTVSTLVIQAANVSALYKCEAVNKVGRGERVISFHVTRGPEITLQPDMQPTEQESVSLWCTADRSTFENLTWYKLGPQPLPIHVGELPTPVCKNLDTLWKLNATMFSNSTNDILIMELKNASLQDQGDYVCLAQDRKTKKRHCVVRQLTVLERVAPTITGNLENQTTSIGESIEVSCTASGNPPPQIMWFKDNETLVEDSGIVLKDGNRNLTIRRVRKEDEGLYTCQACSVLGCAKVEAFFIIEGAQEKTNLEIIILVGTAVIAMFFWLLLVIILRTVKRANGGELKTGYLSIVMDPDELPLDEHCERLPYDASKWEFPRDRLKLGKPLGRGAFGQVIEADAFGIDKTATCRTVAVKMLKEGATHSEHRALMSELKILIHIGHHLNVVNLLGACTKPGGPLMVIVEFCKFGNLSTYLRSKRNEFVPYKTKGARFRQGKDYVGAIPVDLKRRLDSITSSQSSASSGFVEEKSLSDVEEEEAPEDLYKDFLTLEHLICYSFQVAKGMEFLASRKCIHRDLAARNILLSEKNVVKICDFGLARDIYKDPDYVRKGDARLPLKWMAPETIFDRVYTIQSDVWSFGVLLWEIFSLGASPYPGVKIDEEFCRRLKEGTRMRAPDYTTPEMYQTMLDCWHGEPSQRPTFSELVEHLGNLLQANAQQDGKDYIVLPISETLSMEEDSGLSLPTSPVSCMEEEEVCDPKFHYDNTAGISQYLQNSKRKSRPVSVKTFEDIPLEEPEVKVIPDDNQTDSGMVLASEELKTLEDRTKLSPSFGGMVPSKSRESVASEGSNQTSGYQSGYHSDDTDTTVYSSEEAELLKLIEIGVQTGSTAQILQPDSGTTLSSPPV

[1] = target: VEGFR3 cytoplasmic domain (Homo sapiens, UniProt P35916); test: VEGFR3 Biochemical assay (AlphaScreen); conditions: N-terminal GST-fusion enzyme, 500 μM ATP, 90 minutes at 30 degree Celsius (modified form: Hexa-His-fusion, 1 μM ATP)
Chain of VEGFR3 cytoplasmic domain (P35916 25-1363 limits assumed): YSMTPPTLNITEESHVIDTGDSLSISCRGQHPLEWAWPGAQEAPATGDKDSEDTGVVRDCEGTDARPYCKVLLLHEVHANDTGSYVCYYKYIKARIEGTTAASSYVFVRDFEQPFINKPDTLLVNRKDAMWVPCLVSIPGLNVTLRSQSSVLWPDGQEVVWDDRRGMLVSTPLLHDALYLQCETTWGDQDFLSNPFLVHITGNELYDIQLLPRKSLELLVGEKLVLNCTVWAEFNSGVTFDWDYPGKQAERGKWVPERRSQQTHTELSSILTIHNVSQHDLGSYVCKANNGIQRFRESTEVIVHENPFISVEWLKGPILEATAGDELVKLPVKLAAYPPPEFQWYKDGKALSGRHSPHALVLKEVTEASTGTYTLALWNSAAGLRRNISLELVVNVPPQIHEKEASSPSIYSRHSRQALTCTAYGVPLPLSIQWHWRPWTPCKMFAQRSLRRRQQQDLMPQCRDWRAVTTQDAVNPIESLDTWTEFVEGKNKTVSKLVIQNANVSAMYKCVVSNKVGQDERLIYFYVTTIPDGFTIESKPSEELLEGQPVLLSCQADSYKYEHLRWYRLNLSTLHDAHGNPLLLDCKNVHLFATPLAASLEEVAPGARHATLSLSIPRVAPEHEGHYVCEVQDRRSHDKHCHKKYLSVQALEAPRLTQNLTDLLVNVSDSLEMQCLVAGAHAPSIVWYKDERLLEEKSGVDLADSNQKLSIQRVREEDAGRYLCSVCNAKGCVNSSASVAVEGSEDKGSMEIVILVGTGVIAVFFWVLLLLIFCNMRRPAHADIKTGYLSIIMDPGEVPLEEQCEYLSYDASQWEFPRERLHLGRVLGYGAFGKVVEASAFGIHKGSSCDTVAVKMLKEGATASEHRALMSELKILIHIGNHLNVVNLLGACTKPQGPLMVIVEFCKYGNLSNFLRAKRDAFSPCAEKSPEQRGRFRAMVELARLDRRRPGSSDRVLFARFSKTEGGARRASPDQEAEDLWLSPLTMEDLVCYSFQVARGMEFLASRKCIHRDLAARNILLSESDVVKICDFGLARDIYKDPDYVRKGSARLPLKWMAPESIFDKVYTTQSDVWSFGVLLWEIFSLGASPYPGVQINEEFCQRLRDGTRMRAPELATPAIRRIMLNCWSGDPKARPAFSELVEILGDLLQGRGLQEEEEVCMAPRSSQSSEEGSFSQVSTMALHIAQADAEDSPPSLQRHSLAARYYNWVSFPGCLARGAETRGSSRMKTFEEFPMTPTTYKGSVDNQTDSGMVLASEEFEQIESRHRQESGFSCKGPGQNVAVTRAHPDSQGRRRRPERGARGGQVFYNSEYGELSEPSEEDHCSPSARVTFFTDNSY

Chain of VEGFR3 (P35916 25-1363): as the sequence (P35916 25-1363 limits assumed) above

SMILES | IC50 (VEGFR3) | IC50 (VEGFR2) | IC50 [1]
CCC(C(N)=O)c1ccccc1CCc1nc(Nc2ccc(C3CCNCC3)cc2)ncc1C(F)(F)F (racemic) [Compound 1, 2-(2-(2-(2-((4-(piperidin-4-yl)phenyl)amino)-5-(trifluoromethyl)pyrimidin-4-yl)ethyl)phenyl)butanamide] | 173 nM | > 10000 nM | 91 nM
CC(C(N)=O)c1ccccc1CCc1nc(Nc2cnn(C3CCNCC3)c2)ncc1C(F)(F)F (racemic) [Compound 56, 2-(2-(2-(2-((1-(piperidin-4-yl)-1H-pyrazol-4-yl)amino)-5-(trifluoromethyl)pyrimidin-4-yl)ethyl)phenyl)propanamide] | – | 2220 nM | –
CC(C(N)=O)c1ccccc1CCc1nc(Nc2cnn(C3CCN(C)CC3)c2)ncc1C(F)(F)F (single isomer, unassigned) [Compound 57-2A, 2-(2-(2-(2-((1-(1-Methylpiperidin-4-yl)-1H-pyrazol-4-yl)amino)-5-(trifluoromethyl)pyrimidin-4-yl)ethyl)phenyl)propanamide] | – | 382 nM | –
NC(=O)C1(c2ccccc2CCc2nc(Nc3ccc(C(F)(F)F)nc3)ncc2C(F)(F)F)CC1 [Compound 10] | – | – | 92 nM
